Results on four compounds are retold here after article PMC3914206.

For experiment [1], the target named is T1, panel of 442 kinases (Homo sapiens, UniProt P23443).
T1 construct: purchased KINOMEscan
It is filed as binding. The settings on record: kinase S6K1; compound concentration 10 µM. The text has this:
(§1) We assessed the selectivity of members of this scaffold using the KINOMEscan methodology across a near comprehensive panel of 442 kinases [[18,27]].

Experiment [2] concerns the target T2, panel of 442 kinases (Homo sapiens, UniProt Q8TD19).
T2 construct: purchased KINOMEscan
T2 sequence (Q8TD19 1-979): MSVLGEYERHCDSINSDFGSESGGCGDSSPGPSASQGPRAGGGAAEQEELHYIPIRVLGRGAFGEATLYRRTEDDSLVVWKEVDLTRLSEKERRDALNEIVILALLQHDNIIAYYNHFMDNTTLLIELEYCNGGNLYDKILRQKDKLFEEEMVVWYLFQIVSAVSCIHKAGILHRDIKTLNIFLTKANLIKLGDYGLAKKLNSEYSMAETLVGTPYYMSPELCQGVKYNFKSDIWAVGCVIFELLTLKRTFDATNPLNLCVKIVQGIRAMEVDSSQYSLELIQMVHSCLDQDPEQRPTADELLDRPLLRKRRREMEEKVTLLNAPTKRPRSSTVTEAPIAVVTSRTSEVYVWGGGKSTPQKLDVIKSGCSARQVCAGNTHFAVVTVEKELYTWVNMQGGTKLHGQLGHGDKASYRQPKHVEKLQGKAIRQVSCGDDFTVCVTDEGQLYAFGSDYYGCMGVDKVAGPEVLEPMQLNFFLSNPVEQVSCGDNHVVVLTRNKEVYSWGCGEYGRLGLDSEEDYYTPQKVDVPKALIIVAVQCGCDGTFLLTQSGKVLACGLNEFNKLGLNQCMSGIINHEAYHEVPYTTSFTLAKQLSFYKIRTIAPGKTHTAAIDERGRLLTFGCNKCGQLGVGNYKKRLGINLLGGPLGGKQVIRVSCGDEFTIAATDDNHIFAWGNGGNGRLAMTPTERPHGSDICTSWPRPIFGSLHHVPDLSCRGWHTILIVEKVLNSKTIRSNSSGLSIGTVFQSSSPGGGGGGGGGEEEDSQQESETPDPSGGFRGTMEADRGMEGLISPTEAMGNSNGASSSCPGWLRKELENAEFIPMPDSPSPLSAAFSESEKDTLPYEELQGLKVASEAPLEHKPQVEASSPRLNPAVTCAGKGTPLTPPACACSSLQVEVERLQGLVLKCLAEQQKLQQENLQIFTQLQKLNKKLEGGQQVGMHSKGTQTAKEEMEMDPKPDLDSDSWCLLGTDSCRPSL
The format is binding. The note with it: Compound Concentration 10 µM.
From the text: as §1

T1 sequence (P23443 whole entry): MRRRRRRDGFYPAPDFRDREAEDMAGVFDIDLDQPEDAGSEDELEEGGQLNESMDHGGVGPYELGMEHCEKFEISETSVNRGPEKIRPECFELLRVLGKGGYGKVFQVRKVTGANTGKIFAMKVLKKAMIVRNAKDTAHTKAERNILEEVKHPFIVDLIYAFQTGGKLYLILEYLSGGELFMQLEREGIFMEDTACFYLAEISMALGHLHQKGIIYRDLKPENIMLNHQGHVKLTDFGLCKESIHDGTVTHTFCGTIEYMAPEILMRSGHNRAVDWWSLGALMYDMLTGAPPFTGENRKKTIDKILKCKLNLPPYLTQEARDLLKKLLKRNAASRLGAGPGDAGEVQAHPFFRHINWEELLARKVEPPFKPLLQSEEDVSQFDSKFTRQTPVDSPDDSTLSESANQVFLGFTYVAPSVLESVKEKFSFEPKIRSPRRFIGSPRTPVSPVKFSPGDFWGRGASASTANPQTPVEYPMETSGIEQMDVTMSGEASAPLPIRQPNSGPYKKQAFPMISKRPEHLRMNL

Take `CCOc1cc(C(=O)N2CCC(N3CCN(C)CC3)CC2)ccc1Nc1ncc2c(n1)N(C1CCCC1)c1ccccc1C(=O)N2C` [Compound 26]: the “% Ctrl, S6K1” value in experiment [1] was determined as 100 % Ctrl. In experiment [2], the “KINOMEscan: NEK9” value is given as 100.

For `COc1cc(C(=O)N2CCC(N3CCN(C)CC3)CC2)ccc1Nc1ncc2c(n1)N1CCc3cccc(c31)C(=O)N2C` [Compound 24], the “% Ctrl, S6K1” value in experiment [1] was 100 % Ctrl. In addition, the “KINOMEscan: NEK9” value in experiment [2] is given as 87.

On to `COc1cc(C(=O)N2CCC(N3CCN(C)CC3)CC2)ccc1Nc1ncc2c(n1)N(C)c1ccccc1C(=O)N2C` [15 (LRRK2-IN-1)], for which the “% Ctrl, S6K1” value in experiment [1] was determined as 100 % Ctrl. Moreover, in experiment [2], the “KINOMEscan: NEK9” value worked out at 100.

Turning to `COc1cc(C(=O)N2CCC(N3CCN(C)CC3)CC2)ccc1Nc1ncc2c(n1)N(C1CCCC1)c1ccccc1C(=O)N2C` [Compound 25, 11-cyclopentyl-2-((2-methoxy-4-(4-(4-methylpiperazin-1-yl)piperidine-1-carbonyl)phenyl)amino)-5-methyl-5H-benzo[e]pyrimido[5,4-b][1,4]diazepin-6(11H)-one], the “% Ctrl, S6K1” value in experiment [1] came out at 100 % Ctrl. Further, in experiment [2], the “KINOMEscan: NEK9” value stood at 98.
